Measured values as given in ChEMBL document CHEMBL5104090, “Recent advances in the medicinal chemistry of carbonic anhydrase inhibitors” (Eur J Med Chem, 2021).

Experiments:
Carbonic anhydrase 12 [1] = biological target: T1, Carbonic anhydrase 12 (Homo sapiens, UniProt O43570)
Carbonic anhydrase 9 [2] = biological target: T2, Carbonic anhydrase 9 (Homo sapiens, UniProt Q16790)
Carbonic anhydrase 12 [3] = biological target: T1, Carbonic anhydrase 12; remark: listed apart in the source
Carbonic anhydrase 2 [4] = biological target: T3, Carbonic anhydrase 2 (Homo sapiens, UniProt P00918)
Carbonic anhydrase 9 [5] = biological target: T2, Carbonic anhydrase 9; remark: listed apart in the source
Carbonic anhydrase 1 [6] = biological target: T4, Carbonic anhydrase 1 (Homo sapiens, UniProt P00915)
T4 sequence (P00915 whole entry): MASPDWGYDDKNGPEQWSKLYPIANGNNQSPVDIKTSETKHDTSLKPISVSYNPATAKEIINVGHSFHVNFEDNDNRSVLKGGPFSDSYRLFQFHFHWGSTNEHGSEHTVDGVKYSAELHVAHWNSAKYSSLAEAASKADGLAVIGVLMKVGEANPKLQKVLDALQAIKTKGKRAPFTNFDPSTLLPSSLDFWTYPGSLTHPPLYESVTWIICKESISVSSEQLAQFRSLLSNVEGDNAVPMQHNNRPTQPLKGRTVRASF

Carbonic anhydrase 4 [7] = biological target: T5, Carbonic anhydrase 4 (Homo sapiens, UniProt P22748)
T5 sequence (P22748 whole entry): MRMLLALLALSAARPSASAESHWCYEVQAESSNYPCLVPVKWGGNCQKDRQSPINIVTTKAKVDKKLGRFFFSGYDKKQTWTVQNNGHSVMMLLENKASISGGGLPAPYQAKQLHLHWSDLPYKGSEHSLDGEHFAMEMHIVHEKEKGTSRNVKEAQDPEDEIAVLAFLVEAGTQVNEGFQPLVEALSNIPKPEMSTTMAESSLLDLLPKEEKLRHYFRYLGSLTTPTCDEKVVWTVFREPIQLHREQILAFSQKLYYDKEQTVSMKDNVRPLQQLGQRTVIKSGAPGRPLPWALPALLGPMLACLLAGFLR

Carbonic anhydrase 7 = Carbonic anhydrase 7 (Homo sapiens, UniProt P43166)
Chain of Carbonic anhydrase 7 (P43166 whole entry): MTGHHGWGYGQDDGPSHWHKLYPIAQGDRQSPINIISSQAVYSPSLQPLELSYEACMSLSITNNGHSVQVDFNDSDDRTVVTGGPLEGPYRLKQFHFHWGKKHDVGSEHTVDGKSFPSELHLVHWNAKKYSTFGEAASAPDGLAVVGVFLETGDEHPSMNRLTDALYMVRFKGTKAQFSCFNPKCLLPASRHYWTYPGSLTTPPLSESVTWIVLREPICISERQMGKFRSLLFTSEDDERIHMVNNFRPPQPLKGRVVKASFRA

Carbonic anhydrase 1 [8] = biological target: T4, Carbonic anhydrase 1; remark: listed apart in the source
Carbonic anhydrase 4 [9] = biological target: T5, Carbonic anhydrase 4; remark: listed apart in the source
Carbonic anhydrase 2 [10] = biological target: T3, Carbonic anhydrase 2; remark: listed apart in the source
Carbonic anhydrase 9 [11] = biological target: T2, Carbonic anhydrase 9; remark: listed apart in the source
Carbonic anhydrase 2 [12] = biological target: T3, Carbonic anhydrase 2; remark: listed apart in the source
Carbonic anhydrase 1 [13] = biological target: T4, Carbonic anhydrase 1; remark: listed apart in the source

T1 sequence (O43570 whole entry): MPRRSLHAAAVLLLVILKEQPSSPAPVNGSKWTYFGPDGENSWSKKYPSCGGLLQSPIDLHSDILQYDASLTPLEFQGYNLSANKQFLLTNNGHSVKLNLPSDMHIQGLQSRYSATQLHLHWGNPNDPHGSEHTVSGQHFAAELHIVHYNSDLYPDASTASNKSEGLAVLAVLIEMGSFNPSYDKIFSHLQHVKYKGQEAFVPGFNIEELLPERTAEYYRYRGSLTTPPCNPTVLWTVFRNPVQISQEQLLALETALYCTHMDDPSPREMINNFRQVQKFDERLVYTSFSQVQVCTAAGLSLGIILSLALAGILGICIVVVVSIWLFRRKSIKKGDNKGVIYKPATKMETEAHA

## NS(=O)(=O)c1ccc(C(=O)N/N=C/c2ccc(O)cc2)cc1
Carbonic anhydrase 12 [1]
  Ki: 0.0086 µM
Carbonic anhydrase 9 [2]
  Ki: 0.0085 µM

## NS(=O)(=O)c1ccc2[nH]c(-c3ccc(Cl)cc3)nc2c1
Carbonic anhydrase 12 [3]
  IC50: > 0.36 µM
Carbonic anhydrase 2 [4]
  IC50: > 0.36 µM
Carbonic anhydrase 9 [5]
  IC50: > 0.36 µM
Carbonic anhydrase 1 [6]
  IC50: > 0.36 µM

## NS(=O)(=O)c1cccc(N/C=C/C(=O)c2ccccc2)c1
Carbonic anhydrase 4 [7]
  Ki: 0.0065 µM

## Cn1c(-c2ccc(Cl)cc2)nc2cc(B(O)O)ccc21
Carbonic anhydrase 12 [3]
  IC50: > 0.36 µM
Carbonic anhydrase 2 [4]
  IC50: > 0.36 µM
Carbonic anhydrase 9 [5]
  IC50: > 0.36 µM
Carbonic anhydrase 1 [6]
  IC50: > 0.36 µM

## [SeH]c1ccc2ccccc2c1
Carbonic anhydrase 7
  Ki: 0.76 µM
Carbonic anhydrase 9 [2]
  Ki: 0.46 µM

## NS(=O)(=O)c1cccc(N/C=C/C(=O)c2ccc([N+](=O)[O-])cc2)c1
Carbonic anhydrase 4 [7]
  Ki: 0.0065 µM

## NS(=O)(=O)c1cccc(N/C=C/C(=O)c2cccs2)c1
Carbonic anhydrase 4 [7]
  Ki: 0.0087 µM

## COC(=O)c1ccc2c(c1)C(=O)N(CCc1ccc(S(N)(=O)=O)cc1)C2=O
Carbonic anhydrase 1 [8]
  Ki: 0.0541 µM
Carbonic anhydrase 4 [9]
  Ki: 0.317 µM
Carbonic anhydrase 2 [10]
  Ki: 0.0259 µM
Carbonic anhydrase 9 [11]
  Ki: 0.0541 µM

## O=C1c2ccccc2C(=O)N1CCCSc1nc2ccccc2c(=O)n1CCc1ccccc1
Carbonic anhydrase 12 [1]
  Ki: 0.0172 µM
Carbonic anhydrase 9 [2]
  Ki: 0.0193 µM

## NS(=O)(=O)c1ccc(N2C(=O)c3ccc(C(=O)O)cc3C2=O)cc1
Carbonic anhydrase 1 [8]
  Ki: 0.0541 µM
Carbonic anhydrase 4 [9]
  Ki: 0.317 µM
Carbonic anhydrase 2 [10]
  Ki: 0.0259 µM
Carbonic anhydrase 9 [11]
  Ki: 0.0541 µM

## COc1cccc([SeH])c1
Carbonic anhydrase 7
  Ki: 0.76 µM
Carbonic anhydrase 9 [2]
  Ki: 0.28 µM

## NS(=O)(=O)c1ccc(CCn2c(SCc3ccc(Br)cc3)nc3ccccc3c2=O)cc1
Carbonic anhydrase 12 [1]
  Ki: 0.0172 µM
Carbonic anhydrase 9 [2]
  Ki: 0.0193 µM

## Cn1c(-c2ccccc2)nc2cc(B(O)O)ccc21
Carbonic anhydrase 12 [3]
  IC50: > 0.36 µM
Carbonic anhydrase 2 [4]
  IC50: > 0.36 µM
Carbonic anhydrase 9 [5]
  IC50: > 0.36 µM
Carbonic anhydrase 1 [6]
  IC50: > 0.36 µM

## N#Cc1ccc(CSc2nc3ccccc3c(=O)n2CCc2ccc(S(N)(=O)=O)cc2)cc1
Carbonic anhydrase 12 [1]
  Ki: 0.0172 µM
Carbonic anhydrase 9 [2]
  Ki: 0.0193 µM

## NS(=O)(=O)c1ccc(CCn2c(SCc3ccc([N+](=O)[O-])cc3)nc3ccccc3c2=O)cc1
Carbonic anhydrase 12 [1]
  Ki: 0.0172 µM

## COC(=O)c1ccc2c(c1)C(=O)N(Cc1ccccc1)C2=O
Carbonic anhydrase 1 [8]
  Ki: > 10 µM
Carbonic anhydrase 4 [9]
  Ki: > 10 µM
Carbonic anhydrase 2 [10]
  Ki: > 10 µM
Carbonic anhydrase 9 [11]
  Ki: > 10 µM

## COC(=O)c1ccc2c(c1)C(=O)N(c1ccccc1)C2=O
Carbonic anhydrase 1 [8]
  Ki: > 10 µM
Carbonic anhydrase 4 [9]
  Ki: > 10 µM
Carbonic anhydrase 2 [10]
  Ki: > 10 µM
Carbonic anhydrase 9 [11]
  Ki: > 10 µM

## O=C(O)c1ccc2c(c1)C(=O)N(Cc1ccccc1)C2=O
Carbonic anhydrase 1 [8]
  Ki: > 10 µM
Carbonic anhydrase 4 [9]
  Ki: > 10 µM
Carbonic anhydrase 2 [10]
  Ki: > 10 µM
Carbonic anhydrase 9 [11]
  Ki: > 10 µM

## COc1ccccc1[SeH]
Carbonic anhydrase 7
  Ki: 0.76 µM

## NS(=O)(=O)c1ccc(N2N=C(c3cccs3)CC2c2ccccc2)cc1 (centres undefined)
Carbonic anhydrase 2 [12]
  Ki: 0.0806 µM
Carbonic anhydrase 1 [13]
  Ki: 0.0242 µM

## NS(=O)(=O)c1ccc(C(=O)N/N=C/c2ccccc2O)cc1
Carbonic anhydrase 12 [1]
  Ki: 0.0086 µM
Carbonic anhydrase 9 [2]
  Ki: 0.0085 µM

## Cc1ccc(C(=O)/C=C/Nc2cccc(S(N)(=O)=O)c2)cc1
Carbonic anhydrase 4 [7]
  Ki: 0.0065 µM

## Cc1ccccc1[SeH]
Carbonic anhydrase 7
  Ki: 0.76 µM

## NS(=O)(=O)c1ccc2[nH]c(-c3ccccc3)nc2c1
Carbonic anhydrase 12 [3]
  IC50: > 0.36 µM
Carbonic anhydrase 2 [4]
  IC50: > 0.36 µM
Carbonic anhydrase 9 [5]
  IC50: > 0.36 µM
Carbonic anhydrase 1 [6]
  IC50: > 0.36 µM

## COC(=O)c1ccc2c(c1)C(=O)N(Cc1ccc(S(N)(=O)=O)cc1)C2=O
Carbonic anhydrase 1 [8]
  Ki: 0.0541 µM
Carbonic anhydrase 4 [9]
  Ki: 0.317 µM
Carbonic anhydrase 2 [10]
  Ki: 0.0259 µM
Carbonic anhydrase 9 [11]
  Ki: 0.0541 µM

## Cc1ccc(CSc2nc3ccccc3c(=O)n2CCc2ccc(S(N)(=O)=O)cc2)cc1
Carbonic anhydrase 12 [1]
  Ki: 0.0172 µM
Carbonic anhydrase 9 [2]
  Ki: 0.0193 µM

## Cn1c(-c2ccc(B(O)O)cc2)nc2ccccc21
Carbonic anhydrase 12 [3]
  IC50: > 0.36 µM
Carbonic anhydrase 2 [4]
  IC50: > 0.36 µM
Carbonic anhydrase 9 [5]
  IC50: > 0.36 µM
Carbonic anhydrase 1 [6]
  IC50: > 0.36 µM

## NS(=O)(=O)c1ccc(N2N=C(c3cccs3)CC2c2ccc(C(F)(F)F)cc2)cc1 (centres undefined)
Carbonic anhydrase 2 [12]
  Ki: 0.0373 µM
Carbonic anhydrase 1 [13]
  Ki: 0.0242 µM

## CSc1nc2ccccc2c(=O)n1CCc1ccc(S(N)(=O)=O)cc1
Carbonic anhydrase 12 [1]
  Ki: 0.0578 µM
Carbonic anhydrase 9 [2]
  Ki: 0.0578 µM

## NS(=O)(=O)c1ccc(N2N=C(c3cccs3)CC2c2ccc(F)cc2)cc1 (centres undefined)
Carbonic anhydrase 2 [12]
  Ki: 0.0373 µM
Carbonic anhydrase 1 [13]
  Ki: 0.0242 µM

## COc1ccc(C2CC(c3cccs3)=NN2c2ccc(S(N)(=O)=O)cc2)c(OC)c1 (centres undefined)
Carbonic anhydrase 2 [12]
  Ki: 0.0373 µM
Carbonic anhydrase 1 [13]
  Ki: 0.0242 µM

## CCOC(=O)c1ccc(N2C(=O)c3ccc(C(=O)O)cc3C2=O)cc1
Carbonic anhydrase 1 [8]
  Ki: > 10 µM
Carbonic anhydrase 4 [9]
  Ki: > 10 µM
Carbonic anhydrase 2 [10]
  Ki: > 10 µM
Carbonic anhydrase 9 [11]
  Ki: > 10 µM

## Cn1c(-c2ccc(Cl)cc2)nc2cc(S(N)(=O)=O)ccc21
Carbonic anhydrase 12 [3]
  IC50: > 0.36 µM
Carbonic anhydrase 2 [4]
  IC50: > 0.36 µM
Carbonic anhydrase 9 [5]
  IC50: > 0.36 µM
Carbonic anhydrase 1 [6]
  IC50: > 0.36 µM

## NS(=O)(=O)c1ccc2[nH]c(-c3ccccn3)nc2c1
Carbonic anhydrase 12 [3]
  IC50: > 0.36 µM
Carbonic anhydrase 2 [4]
  IC50: > 0.36 µM
Carbonic anhydrase 9 [5]
  IC50: > 0.36 µM
Carbonic anhydrase 1 [6]
  IC50: > 0.36 µM

## O=C(O)c1ccc(N2C(=O)c3ccc(C(=O)O)cc3C2=O)cc1
Carbonic anhydrase 1 [8]
  Ki: > 10 µM
Carbonic anhydrase 4 [9]
  Ki: > 10 µM
Carbonic anhydrase 2 [10]
  Ki: > 10 µM
Carbonic anhydrase 9 [11]
  Ki: > 10 µM

## COc1cc(/C=N/NC(=O)c2ccc(S(N)(=O)=O)cc2)ccc1O
Carbonic anhydrase 12 [1]
  Ki: 0.0097 µM
Carbonic anhydrase 9 [2]
  Ki: 0.0085 µM

## NS(=O)(=O)c1ccc(CCN2C(=O)c3ccc(C(=O)O)cc3C2=O)cc1
Carbonic anhydrase 1 [8]
  Ki: 0.0541 µM
Carbonic anhydrase 4 [9]
  Ki: 0.317 µM
Carbonic anhydrase 2 [10]
  Ki: 0.0259 µM
Carbonic anhydrase 9 [11]
  Ki: 0.0541 µM
